How the values were obtained:
receptor 5-HT4(a) [1] = target: T1, receptor 5-HT4(a) (Homo sapiens, UniProt Q13639); test: [3H]GR113808 radioligand binding, membranes of transiently transfected COS-7 cells; conditions: read-out: Ki, competition for [3H]GR113808 binding
T1 construct: The entire coding region of the cDNAs of 5-HT4(a), 5-HT4(b), 5-HT4(c) and 5-T4(d) was subcloned; expressed in transfected cells; host or cells: COS-7 cells, transient, pRC/CMV vector
Experimental: (§1) The entire coding region of the cDNAs of 5-HT4(a), 5-HT4(b), 5-HT4(c) and 5-T4(d) was subcloned into a mammalian expression vector pRC/CMV (Invitrogen, Carlsbad, Calif.). The transfections were carried out using polyethyleneimine (PEI) as described in Boussif et al. (1995). The cells were transfected using a mixture of DNA and of PEI in a ratio of 20 μmol of PEI/mg of DNA in 0.9% NaCl. For the radioligand binding assays, the COS-7 cells were seeded into culture flasks of 1.5×10^4 mm^2 one day before the transfection, at a density of 1×10^7 cells/flask, incubated for six hours with plasmid DNA (150 μg/flask) and collected 48 hours after transfection. For the measurement of cAMP formation, the COS-7 cells were seeded onto twelve-well plates one day before transfection, at a density of 5×10^5 cells/well, incubated for six hours with plasmid DNA (4 to 8 μg/well according to the experiments) and assayed 24 hours after the transfection. The cells transfected with the receptor 5-HT4 cDNA constructs were compared with the “blank”-transfected cells, which were exposed to the unmodified pRC/CMV plasmid.
(§2) Each flask of cells intended for the radioligand binding assays was washed twice with a phosphate buffer (PBS). The cells were then scraped, collected and centrifuged at 300 g for five minutes. The pellet was resuspended in 2.5 ml of ice-cold HEPES buffer (50 mM, pH 7.4) and homogenized with an Ultraturax tissue grinder. The lysate was then centrifuged at 40,000 g for 20 minutes at 4° C. The resulting pellet was resuspended in 15 volumes of HEPES buffer (50 mM, pH 7.4). The membrane preparations were maintained in ice and used within two hours for radioligand binding assays. The protein concentrations were determined by the method of Lowry et al., 1951, using bovine serum albumin as standard.
(§3) The saturation studies were performed using [^3H] GR113808 at 9 different concentrations ranging from 0.01 to 3.5 nM. The tubes were incubated at 25° C. for 30 minutes. The reaction-was stopped by rapid filtration, under vacuum, through Whatman GF/B filter paper using the Brandel 48R cell harvester. The filters were presoaked in a solution of PEI (0.1%) to reduce the binding to the filters. The filters were then washed with an ice-cold buffer (50 mM Tris-HCl, pH 7.4) and placed in 4 ml of “ready safe” scintillation cocktail (Beckman, Fullerton, Calif.) overnight. The radioactivity was measured using a Beckman LS 6500 C liquid scintillation counter. The binding data were analysed by computer-assisted nonlinear regression analysis (Graph Pad Prism Program, Graph Pad Software, Inc., San Diego, Calif.).
(§4) The experiments correspond to the competition of various compounds for [^3H]GR113808 binding to membranes of transiently transfected COS-7 cells. […] The estimations of affinity are given as Ki values in nM, and are determined from IC50 values obtained by computer-assisted nonlinear curve analysis (GraphPad, Prism Software). The Ki values are representative of at least two determinations.

receptor 5-HT4(b) [2] = target: T2, receptor 5-HT4(b) (Homo sapiens, UniProt Q13639); test: as above; conditions: read-out: Ki, competition for [3H]GR113808 binding
T2 construct: The entire coding region of the cDNAs of 5-HT4(a), 5-HT4(b), 5-HT4(c) and 5-T4(d) was subcloned; expressed in transfected cells; host or cells: COS-7 cells, transient, pRC/CMV vector; cDNA amplified from human brain and ileum RNA
Experimental: as §1, §2, §3, §4

receptor 5-HT4(a) [3] = target: T1, receptor 5-HT4(a); test: cAMP formation in transiently transfected COS-7 cells; type: cell-based; conditions: COS-7, 1 μM, no agonist
Experimental: as §1
(§5) To measure intracellular cAMP accumulation, the transiently transfected COS-7 cells were incubated, 24 hours after transfection, in Dulbecco's modified Eagle medium (DMEM) containing 5 mM theophylline, 10 mM HEPES and 10 μM pargyline for 15 minutes at 37° C., in the presence of 5% CO2. […] The reaction was stopped by aspiration of the medium and addition of 500 μl of ice-cold ethanol. After one hour at room temperature, the cells were scraped, and everything was collected and freeze-dried. The pellet was resuspended in 350 μl of PBS and centrifuged for 5 min at 300 g. The cAMP was quantified in the supernatant using a radioimmunological assay (E.R.I.A. assay kit from Pasteur Diagnostics 79830). Student's t tests were carried out using the program Quick TEst.

receptor 5-HT4(b) [4] = target: T2, receptor 5-HT4(b); test: as above; type: cell-based; conditions: COS-7, 1 μM, no agonist
Experimental: as §1, §5

[5] = tested on: “blank”-transfected COS-7 cells; test: cAMP formation in control COS-7 cells; type: cell-based; conditions: 1 μM
Experimental: as §1, §5

receptor 5-HT4(c) = receptor 5-HT4(c) (Homo sapiens, UniProt Q13639); test: [3H]GR113808 radioligand binding, membranes of transiently transfected COS-7 cells; parameters: The entire coding region of the cDNAs of 5-HT4(a), 5-HT4(b), 5-HT4(c) and 5-T4(d) was subcloned; expressed in transfected cells; host or cells: COS-7 cells, transient, pRC/CMV vector; cDNA amplified from human brain and ileum RNA; conditions: read-out: Ki, competition for [3H]GR113808 binding
Experimental: as §1, §2, §3, §4

receptor 5-HT4(d) = receptor 5-HT4(d) (Homo sapiens, UniProt Q13639); test: as above; parameters: The entire coding region of the cDNAs of 5-HT4(a), 5-HT4(b), 5-HT4(c) and 5-T4(d) was subcloned; expressed in transfected cells; host or cells: COS-7 cells, transient, pRC/CMV vector; cDNA amplified from human brain and ileum RNA; conditions: read-out: Ki, competition for [3H]GR113808 binding
Experimental: as §1, §2, §3, §4

T1 sequence (Q13639 1-387 isoform Q13639-2): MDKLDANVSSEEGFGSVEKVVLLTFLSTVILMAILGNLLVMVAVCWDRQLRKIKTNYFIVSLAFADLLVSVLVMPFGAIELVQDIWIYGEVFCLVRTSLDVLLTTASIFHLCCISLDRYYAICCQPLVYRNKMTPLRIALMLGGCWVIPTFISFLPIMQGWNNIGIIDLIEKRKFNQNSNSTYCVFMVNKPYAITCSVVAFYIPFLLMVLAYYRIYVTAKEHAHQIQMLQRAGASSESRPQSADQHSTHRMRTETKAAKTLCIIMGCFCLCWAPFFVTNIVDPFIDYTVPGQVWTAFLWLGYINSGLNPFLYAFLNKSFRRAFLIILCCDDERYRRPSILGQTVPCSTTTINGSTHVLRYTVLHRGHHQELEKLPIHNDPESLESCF
T2 sequence (Q13639 whole entry): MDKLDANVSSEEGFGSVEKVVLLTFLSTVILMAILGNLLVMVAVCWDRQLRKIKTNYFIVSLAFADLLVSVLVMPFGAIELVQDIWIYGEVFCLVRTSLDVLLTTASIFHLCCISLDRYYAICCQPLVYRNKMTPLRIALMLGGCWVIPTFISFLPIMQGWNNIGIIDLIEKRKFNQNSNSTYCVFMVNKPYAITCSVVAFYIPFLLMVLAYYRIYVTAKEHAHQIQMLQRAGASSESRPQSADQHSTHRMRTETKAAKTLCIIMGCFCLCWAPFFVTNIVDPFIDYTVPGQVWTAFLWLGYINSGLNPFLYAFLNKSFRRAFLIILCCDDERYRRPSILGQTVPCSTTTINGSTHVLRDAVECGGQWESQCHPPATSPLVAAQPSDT
Sequence of receptor 5-HT4(c) (Q13639 1-380 isoform Q13639-4): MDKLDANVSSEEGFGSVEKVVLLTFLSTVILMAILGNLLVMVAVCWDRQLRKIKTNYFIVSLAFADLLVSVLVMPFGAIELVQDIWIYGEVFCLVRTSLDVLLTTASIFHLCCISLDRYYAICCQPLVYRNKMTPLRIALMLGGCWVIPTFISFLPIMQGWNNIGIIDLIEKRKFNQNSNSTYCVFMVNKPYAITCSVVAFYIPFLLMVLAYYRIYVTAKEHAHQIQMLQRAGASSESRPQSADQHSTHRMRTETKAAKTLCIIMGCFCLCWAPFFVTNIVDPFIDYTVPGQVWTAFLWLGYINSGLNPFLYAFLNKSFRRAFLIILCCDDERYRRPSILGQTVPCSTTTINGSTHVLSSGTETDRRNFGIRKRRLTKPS
Sequence of receptor 5-HT4(d) (Q13639 1-360 isoform Q13639-3): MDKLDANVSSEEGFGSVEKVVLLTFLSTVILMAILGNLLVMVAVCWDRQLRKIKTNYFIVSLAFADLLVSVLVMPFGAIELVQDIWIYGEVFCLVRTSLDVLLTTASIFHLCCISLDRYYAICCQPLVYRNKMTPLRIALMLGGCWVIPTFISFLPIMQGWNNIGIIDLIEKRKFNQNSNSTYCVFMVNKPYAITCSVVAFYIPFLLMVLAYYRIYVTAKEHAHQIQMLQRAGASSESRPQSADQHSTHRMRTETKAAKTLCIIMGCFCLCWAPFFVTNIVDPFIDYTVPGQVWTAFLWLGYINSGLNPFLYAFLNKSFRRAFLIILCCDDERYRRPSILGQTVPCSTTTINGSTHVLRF

- Ki (receptor 5-HT4(a) [1]): 0.56 ± 0.11 nM
- Ki (receptor 5-HT4(b) [2]): 1.62 ± 0.82 nM
- effect on the basal cAMP levels (receptor 5-HT4(a) [3]): no significant effect
- effect on the basal cAMP levels (receptor 5-HT4(b) [4]): no significant effect
- Ki (receptor 5-HT4(c)): 0.61 ± 0.08 nM
- Ki (receptor 5-HT4(d)): 0.41 ± 0.1 nM
SMILES: COc1cc(N)c(Cl)cc1C(=O)OCCN1C[C@H](C)C[C@H](C)C1 [ML10375, 2-(cis-3,5-dimethyl-piperidino)ethyl 4-amino-5-chloro-2-methoxybenzoate]
- effect on basal adenylate cyclase activity / basal cAMP levels [5]: no significant effect

— patent publication US6506580B1, “Splice variants for human 5-HT4 serotonin receptor and their applications, in particular for screening” (Institut National de la Sante et de la Recherche Medicale …, priority 1997, dated 2003)
